Assay results published in ChEMBL document CHEMBL1201862, “PubChem BioAssay data set” (2004).
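Dose response: 5 concentrations. Exposure: 48 h. Format: 96-well plates. Endpoint: linear interpolation; highest concentration if not reached. GI50 marks 50% less growth.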 The source made the active and inactive calls. Cut-off read from the data, not from the text of the source: active = GI50 up to about 1.1 µM and inactive = higher.

Key:
Assay in all cases: NCI tumour cell line growth inhibition, 48 h
[1] = tested on: 786-0
[2] = tested on: A498
[3] = tested on: A549
[4] = tested on: ACHN
[5] = tested on: BT-549
[6] = tested on: CAKI-1
[7] = tested on: COLO 205
[8] = tested on: DU-145
[9] = tested on: EKVX
[10] = tested on: HCT-116
[11] = tested on: HCT-15
[12] = tested on: HL-60
[13] = tested on: HOP-62
[14] = tested on: HOP-92
[15] = tested on: HT-29
[16] = tested on: Hs-578T
[17] = tested on: IGROV-1
[18] = tested on: K562
[19] = tested on: KM12
[20] = tested on: LOX IMVI
[21] = tested on: M14
[22] = tested on: MCF7
[23] = tested on: MDA-MB-231
[24] = tested on: MDA-MB-435
[25] = tested on: MDA-N
[26] = tested on: MOLT-4
[27] = tested on: Malme-3M
[28] = tested on: NCI-H226
[29] = tested on: NCI-H23
[30] = tested on: NCI-H460
[31] = tested on: NCI-H522
[32] = tested on: NCI/ADR-RES
[33] = tested on: OVCAR-3
[34] = tested on: OVCAR-4
[35] = tested on: OVCAR-5
[36] = tested on: OVCAR-8
[37] = tested on: PC-3
[38] = tested on: RPMI-8226
[39] = tested on: RXF 393
[40] = tested on: SF-268
[41] = tested on: SF-295
[42] = tested on: SF-539
[43] = tested on: SK-MEL-28
[44] = tested on: SK-MEL-2
[45] = tested on: SK-MEL-5
[46] = tested on: SK-OV-3
[47] = tested on: SN12C
[48] = tested on: SNB-19
[49] = tested on: SNB-75
[50] = tested on: SR
[51] = tested on: SW-620
[52] = tested on: T47D
[53] = tested on: TK-10
[54] = tested on: U-251
[55] = tested on: UACC-257
[56] = tested on: UACC-62
[57] = tested on: UO-31
[58] = tested on: CCRF-CEM
[59] = tested on: HCC 2998

Cc1cc2cc3c(O)nc(O)nc3nc2cc1C
GI50 [1]: > 100 µM (inactive) | GI50 [2]: > 100 µM (inactive) | GI50 [3]: > 100 µM (inactive) | GI50 [4]: > 100 µM (inactive) | GI50 [5]: > 100 µM (inactive) | GI50 [6]: > 100 µM (inactive) | GI50 [7]: > 100 µM (inactive) | GI50 [8]: > 100 µM (inactive) | GI50 [9]: > 100 µM (inactive) | GI50 [10]: > 100 µM (inactive) | GI50 [11]: > 100 µM | GI50 [12]: > 100 µM (inactive) | GI50 [13]: > 100 µM (inactive) | GI50 [14]: > 100 µM (inactive) | GI50 [15]: > 100 µM (inactive) | GI50 [16]: > 100 µM (inactive) | GI50 [17]: > 100 µM (inactive) | GI50 [18]: > 100 µM (inactive) | GI50 [19]: > 100 µM (inactive) | GI50 [20]: > 100 µM (inactive) | GI50 [21]: > 100 µM (inactive) | GI50 [22]: > 100 µM (inactive) | GI50 [23]: > 100 µM (inactive) | GI50 [24]: > 100 µM (inactive) | GI50 [25]: > 100 µM (inactive) | GI50 [26]: > 100 µM (inactive) | GI50 [27]: > 100 µM (inactive) | GI50 [28]: > 100 µM (inactive) | GI50 [29]: > 100 µM (inactive) | GI50 [30]: > 100 µM (inactive) | GI50 [31]: > 100 µM (inactive) | GI50 [32]: > 100 µM (inactive) | GI50 [33]: > 100 µM (inactive) | GI50 [34]: > 100 µM (inactive) | GI50 [35]: > 100 µM (inactive) | GI50 [36]: > 100 µM (inactive) | GI50 [37]: > 100 µM (inactive) | GI50 [38]: > 100 µM (inactive) | GI50 [39]: 52.2 µM (inactive) | GI50 [40]: > 100 µM (inactive) | GI50 [41]: > 100 µM (inactive) | GI50 [42]: > 100 µM (inactive) | GI50 [43]: > 100 µM (inactive) | GI50 [44]: > 100 µM (inactive) | GI50 [45]: > 100 µM (inactive) | GI50 [46]: > 100 µM (inactive) | GI50 [47]: > 100 µM (inactive) | GI50 [48]: > 100 µM (inactive) | GI50 [49]: 27.6 µM (inactive) | GI50 [50]: > 100 µM (inactive) | GI50 [51]: > 100 µM (inactive) | GI50 [52]: > 100 µM (inactive) | GI50 [53]: > 100 µM (inactive) | GI50 [54]: > 100 µM (inactive) | GI50 [55]: > 100 µM (inactive) | GI50 [56]: > 100 µM (inactive) | GI50 [57]: > 100 µM (inactive)

CC(C)c1nc2c(Cl)c3ncccc3cc2[nH]c1=O
GI50 [1]: > 100 µM (inactive) | GI50 [2]: > 100 µM (inactive) | GI50 [3]: > 100 µM (inactive) | GI50 [4]: 44 µM (inactive) | GI50 [5]: 54.5 µM (inactive) | GI50 [6]: 94.6 µM (inactive) | GI50 [58]: 46.2 µM (inactive) | GI50 [7]: > 100 µM (inactive) | GI50 [8]: > 100 µM (inactive) | GI50 [9]: 9.71 µM (inactive) | GI50 [10]: > 100 µM (inactive) | GI50 [11]: 74 µM | GI50 [12]: 50.4 µM (inactive) | GI50 [13]: 32.7 µM (inactive) | GI50 [14]: > 100 µM (inactive) | GI50 [15]: > 100 µM (inactive) | GI50 [16]: 25.8 µM (inactive) | GI50 [17]: 14.8 µM (inactive) | GI50 [18]: > 100 µM (inactive) | GI50 [19]: 80.4 µM (inactive) | GI50 [21]: > 100 µM (inactive) | GI50 [22]: > 100 µM (inactive) | GI50 [23]: 73.6 µM (inactive) | GI50 [24]: > 100 µM (inactive) | GI50 [25]: > 100 µM (inactive) | GI50 [26]: 29.6 µM (inactive) | GI50 [27]: > 100 µM (inactive) | GI50 [28]: 65.9 µM (inactive) | GI50 [29]: 80.2 µM (inactive) | GI50 [30]: 88.1 µM (inactive) | GI50 [31]: 16.7 µM (inactive) | GI50 [32]: 37.8 µM (inactive) | GI50 [33]: > 100 µM (inactive) | GI50 [34]: 67.8 µM (inactive) | GI50 [35]: > 100 µM (inactive) | GI50 [36]: 29.2 µM (inactive) | GI50 [37]: > 100 µM (inactive) | GI50 [38]: > 100 µM (inactive) | GI50 [39]: > 100 µM (inactive) | GI50 [40]: 34.1 µM (inactive) | GI50 [41]: > 100 µM (inactive) | GI50 [42]: > 100 µM (inactive) | GI50 [43]: > 100 µM (inactive) | GI50 [44]: > 100 µM (inactive) | GI50 [45]: 73.6 µM (inactive) | GI50 [46]: > 100 µM (inactive) | GI50 [47]: > 100 µM (inactive) | GI50 [48]: > 100 µM (inactive) | GI50 [49]: 26.4 µM (inactive) | GI50 [50]: > 100 µM (inactive) | GI50 [51]: > 100 µM (inactive) | GI50 [52]: 70.5 µM (inactive) | GI50 [54]: 73.3 µM (inactive) | GI50 [55]: > 100 µM (inactive) | GI50 [56]: > 100 µM (inactive) | GI50 [57]: > 100 µM (inactive)

Cc1sc2nc3n(sc4nc5sc(C)c(C)c5c(=O)n43)c(=O)c2c1C
GI50 [1]: > 100 µM (inactive) | GI50 [3]: > 100 µM (inactive) | GI50 [5]: 70.5 µM (inactive) | GI50 [6]: 66.1 µM (inactive) | GI50 [58]: 16.4 µM (inactive) | GI50 [7]: > 100 µM (inactive) | GI50 [8]: > 100 µM (inactive) | GI50 [9]: 30.3 µM (inactive) | GI50 [59]: > 100 µM (inactive) | GI50 [10]: > 100 µM (inactive) | GI50 [11]: > 100 µM | GI50 [12]: 40.3 µM (inactive) | GI50 [14]: > 100 µM (inactive) | GI50 [15]: > 100 µM (inactive) | GI50 [16]: > 100 µM (inactive) | GI50 [17]: > 100 µM (inactive) | GI50 [18]: 93.8 µM (inactive) | GI50 [19]: > 100 µM (inactive) | GI50 [20]: > 100 µM (inactive) | GI50 [21]: > 100 µM (inactive) | GI50 [22]: 82.4 µM (inactive) | GI50 [23]: 80.5 µM (inactive) | GI50 [24]: > 100 µM (inactive) | GI50 [25]: > 100 µM (inactive) | GI50 [26]: 23 µM (inactive) | GI50 [28]: > 100 µM (inactive) | GI50 [29]: > 100 µM (inactive) | GI50 [30]: > 100 µM (inactive) | GI50 [31]: 16.4 µM (inactive) | GI50 [32]: > 100 µM (inactive) | GI50 [33]: > 100 µM (inactive) | GI50 [34]: 63.8 µM (inactive) | GI50 [35]: > 100 µM (inactive) | GI50 [36]: > 100 µM (inactive) | GI50 [37]: > 100 µM (inactive) | GI50 [38]: > 100 µM (inactive) | GI50 [40]: > 100 µM (inactive) | GI50 [41]: > 100 µM (inactive) | GI50 [42]: > 100 µM (inactive) | GI50 [43]: > 100 µM (inactive) | GI50 [44]: > 100 µM (inactive) | GI50 [45]: > 100 µM (inactive) | GI50 [46]: > 100 µM (inactive) | GI50 [47]: > 100 µM (inactive) | GI50 [48]: > 100 µM (inactive) | GI50 [49]: 4.81 µM (inactive) | GI50 [50]: 75.5 µM (inactive) | GI50 [51]: 45.9 µM (inactive) | GI50 [52]: 0.935 µM (active) | GI50 [53]: > 100 µM (inactive) | GI50 [54]: > 100 µM (inactive) | GI50 [55]: > 100 µM (inactive) | GI50 [56]: 33.2 µM (inactive) | GI50 [57]: > 100 µM (inactive)
